Source: publication PMC8159385, “Chemical synthesis of human syndecan-4 glycopeptide bearing O-, N-sulfation and multiple aspartic acids for probing impacts of the glycan chain and the core peptide on biological functions” (Chemical Science, 2020)
Read-outs that look alike come from different tables or passages of the source. Residues, ends and D or L forms follow the SMILES beside them. *: point of attachment. X1 = O=C(O)[C@H]1O[C@@H](O[C@H]2[C@@H](O)[C@@H](CO)O[C@@H](O[C@H]3[C@@H](O)[C@@H](CO)O[C@@H](O[C@@H]4CO[C@@H](*)[C@H](O)[C@H]4O)[C@@H]3O)[C@@H]2O)[C@H](O)[C@@H](O)[C@@H]1O[C@H]1O[C@H](COS(=O)(=O)O)[C@@H](O)[C@H](O)[C@H]1NS(=O)(=O)O; Biotin = O=C1N[C@H]2[C@H](CS[C@H]2CCCCC(=O)*)N1; Ahx = NCCCCCC(=O)O

Key:
heparanase = target: T1, heparanase (Homo sapiens, UniProt Q9Y251); assay: Fondaparinux colorimetric heparanase assay; format: biochemical; conditions: for inhibition at 3.3 µM: 3.3 μM compound; for inhibition at 3.3 µM / inhibition at 10 µM / inhibition at 33 µM: heparanase 5 nM; for inhibition at 10 µM: 10 μM compound; for inhibition at 33 µM: 33 μM compound
T1 sequence (Q9Y251 158-543 limits assumed): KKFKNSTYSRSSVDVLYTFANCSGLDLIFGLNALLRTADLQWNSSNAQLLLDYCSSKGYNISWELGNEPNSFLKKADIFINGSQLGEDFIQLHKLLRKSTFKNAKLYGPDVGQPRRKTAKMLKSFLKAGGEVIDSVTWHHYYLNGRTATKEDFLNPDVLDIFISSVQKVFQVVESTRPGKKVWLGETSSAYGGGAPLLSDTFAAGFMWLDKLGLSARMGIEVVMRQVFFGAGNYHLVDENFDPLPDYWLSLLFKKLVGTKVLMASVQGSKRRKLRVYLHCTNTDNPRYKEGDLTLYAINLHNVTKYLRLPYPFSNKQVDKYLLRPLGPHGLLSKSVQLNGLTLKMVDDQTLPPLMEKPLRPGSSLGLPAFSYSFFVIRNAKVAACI
T1 sequence (Q9Y251 36-109 limits assumed): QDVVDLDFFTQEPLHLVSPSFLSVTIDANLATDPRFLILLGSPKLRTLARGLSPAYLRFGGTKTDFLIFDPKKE
Source text: With the synthetic glycopeptide and the corresponding peptide and glycan in hand, we began to probe the impacts of glycan and peptide on biological functions of the glycopeptide. The endoglycosidase heparanase is an important enzyme for HS metabolism, which can cleave HS polysaccharide chains at the cell surface or in the extracellular matrix.[63] Heparanase activities are important for a variety of biological processes, including tumor metastasis and cell proliferation.[64] […]
General procedure for heparanase assays
Fondaparinux colorimetric heparanase assays were carried out in 96 well microplates (NEST Scientific 96 Well Cell Culture Plate, 701002) pre-treated with a solution of 4% BSA in phosphate-buffered saline containing 0.05% Tween 20 (PBST) for 2 h at 37 °C. A ssay solutions (100 ul) contained sodium acetate buffer (40 mM, pH 5.0) and fondaparinux ([…], MedChemExpress), heparanase (5 nM) and varying concentrations of compounds of interests or heparin. The mixture was kept at 37 °C for 20 h, which was followed by addition of a solution of WST-1 (100 μL of 1.69 mM WST-1 in 0.1 M NaOH) and incubation at 60 °C for 1 h after which the absorbance at 584 nm was measured (Fluostar Optima plate reader, BMG Labtech). […]

IL-8 = target: T2, IL-8 (Homo sapiens, UniProt P10145); assay: BLI binding assay, biotinylated compounds on streptavidin biosensors, IL-8; conditions: Table 2, read-out: K D IL-8
T2 sequence (P10145 21-99): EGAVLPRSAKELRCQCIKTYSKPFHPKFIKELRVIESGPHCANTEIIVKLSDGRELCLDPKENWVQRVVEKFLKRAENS
Procedure: (§1) Cytokines and growth factors are important proteins modulating cellular functions, many of which are known to interact with HS.[1,8,34,67] To probe the impacts of the glycan and the core peptide, the binding of glycopeptide 1, pentasaccharide 30, and peptide 31 to several representative growth factors and cytokines including fibroblast growth factor 2 (FGF-2), interleukin 8 (IL-8) and chemokine (C–C motif ligand 13 (CCL-13)) respectively was tested using the biolayer interferometry (BLI). The biotinylated glycopeptide 1, pentasaccharide 30, and peptide 31 were immobilized on streptavidin coated biosensors, and their dissociation constants (KD) with the proteins were measured (Table 2). […]
(§2) General procedure for biotinylation
(§3) To a solution of free amine compounds in DMSO/H 2O (1/1, 0.5 ml) was added […]
(§4) The reaction was stirred at room temperature for 5 hours. Then the mixture was loaded onto a G-15 Sephadex column for purification. […] General procedure for BLI binding assay
(§5) The binding assay was performed on the Octet K2 System (Pall ForteBio). The biotinylated […]
(§6) compounds were absorbed to streptavidin (SA) sensor for 2 min. The sensor was then balanced in the assay buffer (PBS containing 0.005% P20) and dipped into protein solution in assay buffer at different concentration. After 5 min of association, the sensor was brought back to the previous assay

FGF-2 = FGF-2 (Homo sapiens, UniProt P09038); assay: BLI binding assay, biotinylated compounds on streptavidin biosensors, FGF-2
Procedure: as §1, §2
To a solution of free amine compounds in DMSO/H 2O (1/1, 0.5 ml) was added sulfo-NHS-LC-Biotin (5 equiv) and DIPEA (pH ~ 8.5). The reaction was stirred at room temperature for 5 hours. Then the mixture was loaded onto a G-15 Sephadex column for purification. […] General procedure for BLI binding assay
as §5
compounds were absorbed to streptavidin (SA) sensor for 2 min. The sensor was then balanced in the assay buffer (PBS containing 0.005% P20) and dipped into protein solution in assay buffer at different concentration. After 5 min of association, the sensor was brought back to the previous assay buffer for a 5 min dissociation step. At the end of the assay, the sensor was regenerated in 2 M NaCl to remove the bound protein. Each measurement was repeated 3 times on the same sensor. The control assay was done with another sensor loaded with saturated biotin solution. […]
MD trajectories were generated from the protein system without any ligand to relax the structure and minimize the pocket restrictions caused by the present ligand in the structure.
The geometries of compounds 2, 28 and 29 were optimized using the Gaussian 16 program package. The optimizations were performed using the AM1 method.1 The obtained Mulliken charges were used with the antechamber module of Amber 16 in the generation of parameters. The systems were prepared using the Leap module of AmberTools162 under the AMBER ff14SB and GAFF force fields. Each enzyme complex was solvated in a 14 Å cube of TIP4P-Ew water beyond the solute and 100 mM sodium chloride. The systems were relaxed under NVT conditions over six minimization procedures with decreasing restraints on the protein of 500.0, 200.0, 20.0, 10.0, 5.0 kcal/(mol Å2) to no restraints. The systems were then heated to 300 K over 30 ps. Atomistic molecular dynamics simulations were performed for 30 ns at 300 K and 1 atm using AMBER 16. The SHAKE algorithm constrained bonds involving hydrogen. 3 The trajectories were produced using Langevin dynamics and the pressure of the system was regulated with isotropic position scaling. Long -range electrostatic effects were modeled using the particle-mesh Ewald method with a 10 Å cutoff.
The produced trajectories were analyzed using AMBER 16 and visualized with MOE and the UCSF Chimera package. Free energy of binding was calculated for every picosecond using the Poisson Boltzmann model form the MMPBSA.py module of AmberTools and AMBER 16. The relative free energy trends between models were compared so solute entropy was neglected.
Following the general procedure for solid-phase peptide synthesis, peptide 29 was obtained in 52% […]
RP-HPLC retention time, tR = 24.4 min.
Following the general procedure for biotinylation, peptide 31 was obtained from 12-mer peptide 29 in 56% yield. The overall yield based on resin loading is 29%. HRMS: C65H103N15O28S [M - 2H]2- […]
Figure S1: Binding of synthetic compounds 1, 31 and 30 to protein FGF2 as measured by BLI (a-c respectively). The biotinylated compounds (2 μM ) were immobilized on streptavidin coated biosensors, and FGF2 was captured on biosensors with six concentrations at 291 nM, 145 nM, […], 39 nM, 20 nM, 10 nM. Fitting curves were shown in red lines. […]

CCL-13 = CCL-13 (Homo sapiens, UniProt Q99616); assay: BLI binding assay, biotinylated compounds on streptavidin biosensors, CCL-13; set-up: key to K D CCL-13: Inactive denotes a KD value greater than 400 μM; conditions: for Kd: Table 2, read-out: K D CCL-13
Procedure: as §1, §2, §3, §4, §5, §6

[1] = BLI, Table 2, read-out: K D FGF2
[2] = Table S2, KD values from BLI measurements, read-out: Experimental KD

Sequence of FGF-2 (P09038 143-288, species assumed): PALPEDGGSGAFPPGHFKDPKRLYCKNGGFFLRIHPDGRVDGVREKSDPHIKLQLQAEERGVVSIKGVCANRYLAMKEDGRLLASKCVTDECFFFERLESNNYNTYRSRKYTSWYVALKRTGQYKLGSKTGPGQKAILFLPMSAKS
Sequence of CCL-13 (Q99616 17-98, species assumed): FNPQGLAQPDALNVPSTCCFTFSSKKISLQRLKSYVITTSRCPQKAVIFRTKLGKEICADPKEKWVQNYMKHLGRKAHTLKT

Compound | inhibition at 3.3 µM (heparanase) [%] | inhibition at 10 µM (heparanase) [%] | inhibition at 33 µM (heparanase) [%] | Kd (IL-8) [nM] | Kd (FGF-2; [1]) [nM] | FGF-2 binding, fold higher than pentasaccharide 30 and peptide 31 (FGF-2; ratio of KD values) | Kd (CCL-13) [nM] | Kd (FGF-2; [2]) [nM] | KD with CCL-13 (CCL-13) | K D CCL-13 (CCL-13; Table 2) | inhibition of heparanase at concentrations up to 100 μM (heparanase)
CC(C)C[C@H](NC(=O)CCCCCNC(=O)CCCC[C@@H]1SC[C@@H]2NC(=O)N[C@@H]21)C(=O)N[C@@H](CO)C(=O)NCC(=O)N[C@@H](CO[C@@H]1OC[C@@H](O[C@@H]2O[C@H](CO)[C@H](O)[C@H](O[C@@H]3O[C@H](CO)[C@H](O)[C@H](O[C@@H]4O[C@H](C(=O)O)[C@@H](O[C@H]5O[C@H](COS(=O)(=O)O)[C@@H](O)[C@H](O)[C@H]5NS(=O)(=O)O)[C@H](O)[C@H]4O)[C@H]3O)[C@H]2O)[C@H](O)[C@H]1O)C(=O)NCC(=O)N[C@@H](CC(=O)O)C(=O)N[C@@H](CC(C)C)C(=O)N[C@@H](CC(=O)O)C(=O)N[C@@H](CC(=O)O)C(=O)N[C@@H](CC(C)C)C(=O)N[C@@H](CCC(=O)O)C(=O)N[C@@H](CC(=O)O)C(=O)O [Compound 1] ({Biotin-Ahx}-LSGS(X1)GDLDDLED-OH) | < 0 | < 0 | < 0 | 28 | 5 | about 3 fold | 498 | – | – | – | neither peptide 31 nor glycopeptide 1 were able to inhibit heparanase
NCCCO[C@@H]1OC[C@@H](O[C@@H]2O[C@H](CO)[C@H](O)[C@H](O[C@@H]3O[C@H](CO)[C@H](O)[C@H](O[C@@H]4O[C@H](C(=O)O)[C@@H](O[C@H]5O[C@H](COS(=O)(=O)O)[C@@H](O)[C@H](O)[C@H]5NS(=O)(=O)O)[C@H](O)[C@H]4O)[C@H]3O)[C@H]2O)[C@H](O)[C@H]1O [Compound 28] | – | – | – | – | – | – | – | 14.5 | – | – | –
O=C(CCCCC1SCC2NC(=O)NC21)NCCCCCC(=O)NCCCOC1OCC(OC2OC(CO)C(O)C(OC3OC(CO)C(O)C(OC4OC(C(=O)O)C(OC5OC(COS(=O)(=O)O)C(O)C(O)C5NS(=O)(=O)O)C(O)C4O)C3O)C2O)C(O)C1O (stereo not drawn) [Compound 30] | < 0 | 32 | 61 | 39 | 14.5 | – | – | – | did not exhibit much binding | Inactive | –

The next lines start with results.

inhibition at 3.3 µM (heparanase) [%] | inhibition at 10 µM (heparanase) [%] | inhibition at 33 µM (heparanase) [%] | Kd (IL-8) [nM] | Kd (FGF-2; [1]) [nM] | FGF-2 binding, fold higher than pentasaccharide 30 and peptide 31 (FGF-2; ratio of KD values) | Kd (CCL-13) [nM] | Kd (FGF-2; [2]) [nM] | KD with CCL-13 (CCL-13) | K D CCL-13 (CCL-13; Table 2) | Compound | inhibition of heparanase at concentrations up to 100 μM (heparanase)
– | – | – | – | – | – | – | 17 | – | – | CC(C)C[C@H](NC(=O)[C@H](CC(=O)O)NC(=O)CNC(=O)[C@H](CO)NC(=O)CNC(=O)[C@H](CO)NC(=O)[C@@H](N)CC(C)C)C(=O)N[C@@H](CC(=O)O)C(=O)N[C@@H](CC(=O)O)C(=O)N[C@@H](CC(C)C)C(=O)N[C@@H](CCC(=O)O)C(=O)N[C@@H](CC(=O)O)C(=O)O [Compound 29] (H-LSGSGDLDDLED-OH) | –
< 0 | < 0 | < 0 | 75 | 17 | – | 92 | – | – | – | CC(C)C[C@H](NC(=O)CCCCCNC(=O)CCCC[C@@H]1SC[C@@H]2NC(=O)N[C@@H]21)C(=O)N[C@@H](CO)C(=O)NCC(=O)N[C@@H](CO)C(=O)NCC(=O)N[C@@H](CC(=O)O)C(=O)N[C@@H](CC(C)C)C(=O)N[C@@H](CC(=O)O)C(=O)N[C@@H](CC(=O)O)C(=O)N[C@@H](CC(C)C)C(=O)N[C@@H](CCC(=O)O)C(=O)N[C@@H](CC(=O)O)C(=O)O [Compound 31] ({Biotin-Ahx}-LSGSGDLDDLED-OH; N-terminus and C-terminus assumed) | neither peptide 31 nor glycopeptide 1 were able to inhibit heparanase
